Columns and labels:
[1] = pKCu, stability constant of the Cu2+ chelate by Cu ion electrode method; assay type: physicochemical
Experimental: The pKCu was obtained by the following procedures. A Cu ion electrode method was used (Orion pH/ion analyzer; Cu ion electrode). A 0.1M triethanolamine-HCl (pH 8) buffer solution was used.
First of all, standard copper ion buffer solutions [400, 320, 240, 160 or 80 ppm (reduced to Cu^2+)] were prepared using CuCl2.2H2O, and a calibration curve was prepared using a copper ion electrode.
Then, a sample weighing 0.1 g was dissolved in 100 ml of a buffer solution in a measuring flask. To the sample solution was added dropwise a 0.05M CuCl2.2H2O buffer solution (pH 8) from a burette in 0.6 ml portions, and the potential of the Cu ion electrode was measured. The titration was conducted until the potential exceeded the level corresponding to 400 ppm (reduced to Cu^2+). Blank measurements were also carried out. A free Cu ion concentration was calculated from the potential, and the calculated value was corrected for the change in amount of the liquid of the measurement system due to the titration. Assuming that addition of an equimolar amount of Cu to a sample produces a 1:1 (by mole) complex, pKCu can be obtained from formula 1:
Stability Constant KML=[ML]/([M][L])
[ML]: Concentration of metal/chelating agent complex
[M]: Concentration of free metal ion
[L]: Concentration of free chelating agent

[2] = Solubility of copper salt of chelating compound in physiological saline; details: stirred 30 minutes
[3] = log stability constant with Cu2+, 25° C., 0.1M triethanolamine-HCl pH 8

## O=C(O)CN(CCN(CC(=O)O)CC(=O)O)CC(=O)O [EDTA, ethylenediaminetetraacetic acid, reference compound]
[1]; pH 8
  pKCu (25° C.): 18.79

## O=P(O)(O)OP(=O)(O)OP(=O)(O)O [Sodium Tripolyphosphate, reference compound]
[2]
  Solubility of Cu Salt (25° C.): 1 wt %
[1]; [3]
  pKCu (25° C.): 6.8

## O=C([O-])CC(O)(CC(=O)[O-])C(=O)[O-].[Na+].[Na+].[Na+] [Trisodium Citrate, reference compound]
[1]; [3]
  pKCu (25° C.): 5.2

## CC(C)c1cccc(O)c(=O)c1 [β-Thujaplicin, β-thujaplicin]
[2]
  Solubility of Cu Salt (25° C.): <0.0001 wt %
[1]; [3]
  pKCu (25° C.): 7.9

## CC(C)c1ccc(O)c(=O)cc1 [γ-Thujaplicin, γ-thujaplicin]
[1]; [3]
  pKCu (25° C.): 7.9

## Monooleyl Citrate
[1]; [3]
  pKCu (25° C.): 6.4

## Monooleyl Phosphate
[1]; [3]
  pKCu (25° C.): 3.3

From patent publication US6335398B1, “Super absorbent polymer composition” (priority 1994, dated 2002)
